Results from US6489469B1, “Method for storing or transporting erythritol solution” (Nikken Chemicals Co., Ltd., priority 1999, dated 2002).

Legend:
[1] = Long-term Stability of Erythritol Solution by High Temperature Storage; format: physicochemical; design: change in the degree of coloring / Degree of Coloring: scale not given here
Description: solutions having erythritol concentrations of 50%, 55%, 58% and 62%, respectively, were prepared and stored at 55° C., 60° C., 65° C. and 75° C. respectively, for 2 months and degree of coloring, pH, and purity were measured and the degree of deterioration was studied.

[2] = test system: Candida albicans IFO 1549; assay: Viable Count of Candida albicans IFO 1549 in Erythritol Solution; format: cell-based
Description: Erythritol solutions of respective concentrations in the range of from 30 to 60% were prepared. To these were inoculated Staphylococcus aureus IFO 13276, Bacillus subtilis IFO 3134, and Escherichia coli IFO 3972 as bacteria, Candida albicans IFO 1549 and Saccharomyces cerevisiae ATCC 9763 as yeasts, Aspergillus niger IFO 6342, Aspergillus flavus IFO 6343, and Penicillium funiculosum IFO 6345 as fungi, respectively, in a population (concentration) of 10,000 cells/mL or more. After the inoculation, the solutions were stored at 30, 37, 45, 50, or 60° C., respectively, for 56 days and the number of viable cell was determined daily. The determination of the number of viable cell was performed by a method of coating 0.1 mL of appropriately diluted sample cultivation on an agar plate and cultivating and counting the number of viable cell (the number of colony) that grew after the cultivation.

[3] = 75° C., short period of 10 days or less
[4] = Storage Temperature: 55° C., Erythritol Concentration: 50%, 0 days
[5] = Storage Temperature: 55° C., Erythritol Concentration: 50%, 10 days
[6] = Storage Temperature: 55° C., Erythritol Concentration: 50%, 30 days
[7] = Storage Temperature: 55° C., Erythritol Concentration: 50%, 60 days
[8] = Storage Temperature: 60° C., Erythritol Concentration: 55%, 0 days
[9] = Storage Temperature: 60° C., Erythritol Concentration: 55%, 10 days
[10] = Storage Temperature: 60° C., Erythritol Concentration: 55%, 30 days
[11] = Storage Temperature: 60° C., Erythritol Concentration: 55%, 60 days
[12] = Storage Temperature: 65° C., Erythritol Concentration: 58%, 0 days
[13] = Storage Temperature: 65° C., Erythritol Concentration: 58%, 10 days
[14] = Storage Temperature: 65° C., Erythritol Concentration: 58%, 30 days
[15] = Storage Temperature: 65° C., Erythritol Concentration: 58%, 60 days
[16] = Storage Temperature: 75° C., Erythritol Concentration: 62%, 0 days
[17] = Storage Temperature: 75° C., Erythritol Concentration: 62%, 10 days
[18] = Storage Temperature: 75° C., Erythritol Concentration: 62%, 30 days
[19] = Storage Temperature: 75° C., Erythritol Concentration: 62%, 60 days

- change in pH [1, 3]: ≤ 1
- change in purity [1, 3]: no change
- change in the degree of coloring [1, 3]: ≤ 0.01
- Degree of Coloring [1, 4]: 0.028
- Purity (%) [1, 4]: 99.9%
- pH [1, 4]: 5.7
- Degree of Coloring [1, 5]: 0.028
- Purity (%) [1, 5]: 99.9%
- pH [1, 5]: 5.6
- Degree of Coloring [1, 6]: 0.026
- Purity (%) [1, 6]: 100.0%
- pH [1, 6]: 5.4
- Degree of Coloring [1, 7]: 0.027
- Purity (%) [1, 7]: 100.0%
- pH [1, 7]: 5.1
- Degree of Coloring [1, 8]: 0.021
- Purity (%) [1, 8]: 99.9%
- pH [1, 8]: 5.7
- Degree of Coloring [1, 9]: 0.021
- Purity (%) [1, 9]: 99.9%
- pH [1, 9]: 5.4
- Degree of Coloring [1, 10]: 0.023
- Purity (%) [1, 10]: 99.9%
- pH [1, 10]: 5.5
- Degree of Coloring [1, 11]: 0.028
- Purity (%) [1, 11]: 99.9%
- pH [1, 11]: 5.0
- Degree of Coloring [1, 12]: 0.029
- Purity (%) [1, 12]: 100.0%
- pH [1, 12]: 5.7
- Degree of Coloring [1, 13]: 0.030
- Purity (%) [1, 13]: 99.9%
- pH [1, 13]: 5.5
- Degree of Coloring [1, 14]: 0.029
- Purity (%) [1, 14]: 100.0%
- pH [1, 14]: 5.2
- Degree of Coloring [1, 15]: 0.036
- Purity (%) [1, 15]: 99.9%
- pH [1, 15]: 4.7
- Degree of Coloring [1, 16]: 0.025
- Purity (%) [1, 16]: 99.9%
- pH [1, 16]: 5.7
- Degree of Coloring [1, 17]: 0.027
- Purity (%) [1, 17]: 99.9%
- pH [1, 17]: 5.2
- Degree of Coloring [1, 18]: 0.033
- Purity (%) [1, 18]: 99.9%
- pH [1, 18]: 4.8
- Degree of Coloring [1, 19]: 0.065
- Purity (%) [1, 19]: 99.9%
- pH [1, 19]: 3.9
Compound: OC[C@@H](O)[C@@H](O)CO [Erythritol Solution, erythritol]
- storage stability (purity, coloring) ([1]; storage at a temperature of 55 to 65° C.): without causing a decrease in purity or causing coloring
- The Number of Viable Cell ([2]; 37° C., 30% w/w, Day 0): ≥ 10000 cells/mL
- The Number of Viable Cell ([2]; 37° C., 30% w/w, Day 3): ≥ 10000 cells/mL
- The Number of Viable Cell ([2]; 37° C., 30% w/w, Day 7): ≥ 10000 cells/mL
- The Number of Viable Cell ([2]; 37° C., 30% w/w, Day 14): ≥ 10000 cells/mL
- The Number of Viable Cell ([2]; 37° C., 30% w/w, Day 28): ≥ 10000 cells/mL
- The Number of Viable Cell ([2]; 37° C., 30% w/w, Day 56): ≥ 10000 cells/mL
- The Number of Viable Cell ([2]; 37° C., 40% w/w, Day 0): ≥ 10000 cells/mL
- The Number of Viable Cell ([2]; 37° C., 40% w/w, Day 3): ≥ 10000 cells/mL
- The Number of Viable Cell ([2]; 37° C., 40% w/w, Day 7): ≥ 10000 cells/mL
- The Number of Viable Cell ([2]; 37° C., 40% w/w, Day 14): ≥ 10000 cells/mL
- The Number of Viable Cell ([2]; 37° C., 40% w/w, Day 28): ≥ 10000 cells/mL
- The Number of Viable Cell ([2]; 37° C., 40% w/w, Day 56): ≥ 10000 cells/mL
- The Number of Viable Cell ([2]; 45° C., 30% w/w, Day 0): ≥ 10000 cells/mL
- The Number of Viable Cell ([2]; 45° C., 30% w/w, Day 3): 190 cells/mL
- The Number of Viable Cell ([2]; 45° C., 30% w/w, Day 7): 0 cells/mL
- The Number of Viable Cell ([2]; 45° C., 30% w/w, Day 14): 0 cells/mL
- The Number of Viable Cell ([2]; 45° C., 30% w/w, Day 28): 0 cells/mL
- The Number of Viable Cell ([2]; 45° C., 30% w/w, Day 56): 0 cells/mL
- The Number of Viable Cell ([2]; 45° C., 40% w/w, Day 0): ≥ 10000 cells/mL
- The Number of Viable Cell ([2]; 45° C., 40% w/w, Day 3): 0 cells/mL
- The Number of Viable Cell ([2]; 45° C., 40% w/w, Day 7): 0 cells/mL
- The Number of Viable Cell ([2]; 45° C., 40% w/w, Day 14): 0 cells/mL
- The Number of Viable Cell ([2]; 45° C., 40% w/w, Day 28): 0 cells/mL
- The Number of Viable Cell ([2]; 45° C., 40% w/w, Day 56): 0 cells/mL
- The Number of Viable Cell ([2]; 45° C., 50% w/w, Day 0): ≥ 10000 cells/mL
- The Number of Viable Cell ([2]; 45° C., 50% w/w, Day 3): 0 cells/mL
- The Number of Viable Cell ([2]; 45° C., 50% w/w, Day 7): 0 cells/mL
- The Number of Viable Cell ([2]; 45° C., 50% w/w, Day 14): 0 cells/mL
- The Number of Viable Cell ([2]; 45° C., 50% w/w, Day 28): 0 cells/mL
- The Number of Viable Cell ([2]; 45° C., 50% w/w, Day 56): 0 cells/mL
- The Number of Viable Cell ([2]; 50° C., 30% w/w, Day 0): ≥ 10000 cells/mL
- The Number of Viable Cell ([2]; 50° C., 30% w/w, Day 3): 0 cells/mL
- The Number of Viable Cell ([2]; 50° C., 30% w/w, Day 7): 0 cells/mL
- The Number of Viable Cell ([2]; 50° C., 30% w/w, Day 14): 0 cells/mL
- The Number of Viable Cell ([2]; 50° C., 30% w/w, Day 28): 0 cells/mL
- The Number of Viable Cell ([2]; 50° C., 30% w/w, Day 56): 0 cells/mL
- The Number of Viable Cell ([2]; 50° C., 40% w/w, Day 0): ≥ 10000 cells/mL
- The Number of Viable Cell ([2]; 50° C., 40% w/w, Day 3): 0 cells/mL
- The Number of Viable Cell ([2]; 50° C., 40% w/w, Day 7): 0 cells/mL
- The Number of Viable Cell ([2]; 50° C., 40% w/w, Day 14): 0 cells/mL
- The Number of Viable Cell ([2]; 50° C., 40% w/w, Day 28): 0 cells/mL
- The Number of Viable Cell ([2]; 50° C., 40% w/w, Day 56): 0 cells/mL
- The Number of Viable Cell ([2]; 50° C., 50% w/w, Day 0): ≥ 10000 cells/mL
- The Number of Viable Cell ([2]; 50° C., 50% w/w, Day 3): 0 cells/mL
- The Number of Viable Cell ([2]; 50° C., 50% w/w, Day 7): 0 cells/mL
- The Number of Viable Cell ([2]; 50° C., 50% w/w, Day 14): 0 cells/mL
- The Number of Viable Cell ([2]; 50° C., 50% w/w, Day 28): 0 cells/mL
- The Number of Viable Cell ([2]; 50° C., 50% w/w, Day 56): 0 cells/mL
- growth of the microbes ([2]; temperature of 50° C. or more): prevented from growing
- time after which microbes died ([2]; temperature of 50° C. or more): 3 days
